Laboratory results published in patent US6638726B1, “Screening methods for compounds useful in the treatment of polycystic kidney disease” (Mount Sinai School of Medicine of New York University, priority 2000, dated 2003).

Test system: ADPKD cells
Experiment: modified Boyden chamber motility assay
Format: cell-based, human
Conditions: cells treated for 2 days with 10 mM LiCl, migration through 8 μM pores, 1%-5% FBS gradient, fluorescent microplate quantification, compared with NHCT and NHTAL controls
Experimental: To assay for cell motility a number of different assays may be used, including but not limited to, standard migratory assays on slides or using modified Boyden chambers. Such assay systems are described in further detail in a working example of the present specification (See, Example 7).
Using a modified Boyden chamber motility assay human renal epithelial cells and ADPKD cells were plated (5000 cells/membrane) in the upper chamber and allowed to migrate through 8 μM pores for 0-15 hours in response to a 1%-5% FBS gradient. All primary and differentiated conditionally immortalized cell types migrate in a a time-dependent fashion but more normal adult collecting tubule (NHCT) and thick ascending limb (NHTAL) cells appeared in the lower chamber than ADPKD epithelia, 975±10 (NHCT), 1060±(NHTAL) versus 426±20 (ADPKD). The effect of lithium on renal epithelial cell motility was assessed. Calcein-AM (Goldberg, A. Fluorescent Blocking Membrane Enhances Analyses of Cell-Based Assay. Becton Dickinson Techniques Bulletin #429) labeled cells were treated for 2 days±10 mM LICL and then plated onto membranes as described above.

[Cl-].[Li+] [LiCl, lithium chloride]
motility of ADPKD cells: significantly increased the motility of ADPKD cells | motility of ADPKD cells (listed as Lithium): increases the motility of ADPKD cells to the level observed for NHCT (CT) cells | motility of ADPKD cells (listed as lithium): decreased epithelial cell motility can be reversed | motility of ADPKD cells (listed as lithium chloride): increase the motility of ADPKD cells to almost normal levels
